Test results as given in ChEMBL document CHEMBL1817638, “Ligand polarizability contributes to tau fibril binding affinity” (Bioorg Med Chem, 2011).
Calls of active or inactive are those of the source. The calls are words filed in the database; no cut-off is given here.

Tests used:
[1] = Displacement of Thioflavin T from synthetic Tau 2N4R aggregate by fluorescence assay at 1 uM probe concentration
[2] = Displacement of Thioflavin S from synthetic Tau 2N4R aggregate by fluorescence assay at 10 uM probe concentration
[3] = Displacement of Thioflavin S from Octadecyl sulfate-induced synthetic Tau 2N4R aggregate by fluorescence assay
[4] = Displacement of Thioflavin S from arachidonic acid-induced synthetic Tau 2N4R aggregate by fluorescence assay
[5] = Displacement of Thioflavin S from heparin-induced synthetic Tau 2N4R aggregate by fluorescence assay
[6] = target: Microtubule-associated protein tau (Homo sapiens) (UniProt P10636); experiment: Displacement of Thioflavin T from Octadecyl sulfate-induced synthetic Tau 0N4R aggregate at 17 pm to 10 uM by fluorescence assay at 0.1 uM probe concentration
Chain of Microtubule-associated protein tau (Homo sapiens) (P10636 whole entry): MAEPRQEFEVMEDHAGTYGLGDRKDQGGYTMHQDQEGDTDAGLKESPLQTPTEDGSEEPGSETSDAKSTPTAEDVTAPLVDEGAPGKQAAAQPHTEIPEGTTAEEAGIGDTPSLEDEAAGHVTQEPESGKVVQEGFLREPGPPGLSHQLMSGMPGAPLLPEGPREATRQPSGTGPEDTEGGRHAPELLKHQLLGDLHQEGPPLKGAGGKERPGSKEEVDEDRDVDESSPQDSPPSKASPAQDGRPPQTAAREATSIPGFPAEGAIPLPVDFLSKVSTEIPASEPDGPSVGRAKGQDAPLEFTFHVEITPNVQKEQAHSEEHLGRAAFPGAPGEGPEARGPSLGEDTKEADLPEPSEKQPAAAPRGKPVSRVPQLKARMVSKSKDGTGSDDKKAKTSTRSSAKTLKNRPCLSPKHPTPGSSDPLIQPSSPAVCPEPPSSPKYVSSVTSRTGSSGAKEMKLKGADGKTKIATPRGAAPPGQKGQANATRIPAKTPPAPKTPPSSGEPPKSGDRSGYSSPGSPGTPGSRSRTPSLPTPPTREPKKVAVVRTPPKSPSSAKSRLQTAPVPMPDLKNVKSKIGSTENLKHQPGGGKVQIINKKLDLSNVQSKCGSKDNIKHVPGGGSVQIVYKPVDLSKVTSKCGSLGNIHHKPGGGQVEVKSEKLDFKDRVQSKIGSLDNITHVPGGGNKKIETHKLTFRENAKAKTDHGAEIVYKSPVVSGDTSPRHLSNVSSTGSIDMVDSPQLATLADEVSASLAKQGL

[7] = target: Microtubule-associated protein tau (Homo sapiens) (UniProt P10636); experiment: Displacement of Thioflavin T from Octadecyl sulfate-induced synthetic Tau 0N4R aggregate at 17 pm to 10 uM by fluorescence assay at increasing probe concentration
[8] = Displacement of Thioflavin S from synthetic Tau 2N4R aggregate by fluorescence assay
[9] = target: Microtubule-associated protein tau (Homo sapiens) (UniProt P10636); experiment: Displacement of Thioflavin S from recombinant human PHF-tau expressed in Escherichia coli by fluorescence assay

SMILES	Activity [1]	Activity [2]	Activity [3]	Activity [4]	Activity [5]	further results
COc1ccc2nc(/N=N/c3ccc(N(C)C)cc3)sc2c1			Active	Active	Active	
N=C1C=CC(=C(c2ccc(N)cc2)c2ccc(N)cc2)C=C1	Active	Active				
Nc1ccc2nc3ccc(N)cc3[s+]c2c1	Active	inactive				
CN(C)c1ccc(-c2nc3ccccc3s2)cc1						Activity [6]: Active; Activity [7]: inactive
CN(C)c1ccc(/C=C2\C(=O)Nc3ccc(I)cc32)cc1			Active	Active	Active	Activity [8]: Active; Activity [9]: Active
CN(C)c1ccc2nc3ccc(N)cc3[s+]c2c1	Active	inactive				
Cc1cc2nc3ccc(N(C)C)cc3[s+]c2cc1N	Active	inactive				
CN(C)c1ccc(/C=C2/C(=O)Nc3ccccc32)cc1						Activity [6]: Active; Activity [7]: Active
C/N=c1\ccc2nc3ccc(N)cc3sc-2c1	Active	inactive	Active	Active	Active	
CN(C)c1ccc(C(=C2C=CC(=[N+](C)C)C=C2)c2ccc(N(C)C)cc2)cc1	Active	Active				

Further lines, with some results ahead:

Activity [1]	Activity [2]	Activity [3]	Activity [4]	Activity [5]	SMILES	further results
Active	Active				O=C1C=CC(=C(c2ccc(O)cc2)c2ccc(O)cc2)C=C1	
Active	Active				CN(C)c1ccc(C(=C2C=CC(=[N+](C)C)C=C2)c2ccccc2)cc1	
Active	inactive	Active	Active	Active	CN(C)c1ccc2nc3ccc(=[N+](C)C)cc-3sc2c1	
Active	inactive				CNc1ccc2nc3ccc(N(C)C)cc3[s+]c2c1	
		Active	Active	Active	O=C(O)c1cc(/N=N/c2ccc(-c3ccc(/N=N/c4ccc(O)c(C(=O)O)c4)cc3)cc2)ccc1O	
